Structures can show the parent of a compound that is named as a salt.
Key:
[1] = system: intra-ocular pressure of the eye; assay: Intra-ocular pressure measurement after local (ophthalmic) administration in dogs; type: in vivo, dog (Beagle); conditions: dog, 0.5 w/v %, one drop
Description: In the local administration tests, compound (I) was applied to one eye of healthy grown-up dog (male or female; body weight 10 to 14 kg; Beagle dog) being normal in sense of sight and other sensitive faculties and having no morphological abnormality in the eyes, and evaluated for the effect thereof.
The test ophthalmic composition was prepared according to the recipe of Example 4, so as to include 0.5 w/v % of compound (I) HCl salt.
(§1) One drop (about 0.04 ml) of the ophthalmic composition was applied to a conjunctival sac of one eye and a drop of physiologic saline was into the conjunctival sac of the other eye. Thus applied eyes were kept closed for 5 to 10 seconds to ensure the osmosis of the medicament administered. Intra-ocular pressure in the respective eye was measured by using an Alcon Pneumatonography, just before the treatment with said medicine, and 1 to 24 hours after said administration. At each time, one drop of 0.4% oxydibucaine HCl ophthalmic composition (Trade Mark: Benoxyl® 0.4%; Santen Seiyaku K.K.) was applied to and intra-ocular pressure was measured after 20 to 30 seconds thereafter.

[2] = system: intra-ocular pressure of the eye; assay: Intra-ocular pressure measurement after ophthalmic administration in albino rabbits; type: in vivo; conditions: rabbit
Description: as §1
Using the same procedure as stated in Example 1, compound (I) was evaluated with 12 albino rabbits (male; body weight 2 to 3 kg, native kind). As the test medicaments, aqueous 0.5 w/v % and 0.25 w/v % compound (I) HCl solutions prepared according to Example 4 were used, as well as physiologic saline control solution.

[3] = Stability / precipitation of ophthalmic solution on storage; type: physicochemical; conditions: 40° C., 3 months
Description: To a part of distilled water required, was added 500 mg of compound (I) hydrochloride and the mixture was stirred at room temperature to dissolve the active ingredient. Next, D-mannitol 5 g, glycine 500 mg and Benzalkonium chloride 5 mg were added in this order and dissolved in the same way. After adjusting pH of the solution to 5.5 with hydrochloric acid, the mixture was added with distilled water to make the total volume to 100 ml. The solution was filtered under sterile conditions.
The following ophthalmic composition was prepared in the same way as stated in Example 4, using 100 mg of compound (I) acetate in place of 500 mg of compound (I) hydrochloride.
To a part of the required distilled water, was added 250 mg of compound (I) maleate, and the mixture was heated to 30° C. and stirred to dissolve the active ingredient. To this solution, 4 g of D-manitol, 1 g of glycine and 5 mg of Benzalkonium chloride were added and dissolved in this order. After adjusting pH of the solution to 6.0 with hydrochloric acid, the solution was added with distilled water to make the volume to 100 ml, and thus obtained solution was filtered under sterile conditions.

Mouse acute toxicity = type: in vivo; conditions: in vivo
mouse = assay: Mouse acute toxicity; type: in vivo; conditions: acute toxicity
Rat acute toxicity = type: in vivo; conditions: in vivo
rat = assay: Rat acute toxicity; type: in vivo; conditions: acute toxicity

## CC(C)(C)NCC(O)CSc1nc(-c2ccc(C(N)=O)s2)cs1 (centres unmarked) [compound (I) HCl]
[1]; 1 hour later
  Intra-ocular pressure (mean ± standard error): 20.0 ± 0.9 mm Hg
[1]; 3 hours later
  Intra-ocular pressure (mean ± standard error): 16.6 ± 1.0 mm Hg
[1]; 5 hours later
  Intra-ocular pressure (mean ± standard error): 15.4 ± 0.9 mm Hg
[1]; 7 hours later
  Intra-ocular pressure (mean ± standard error): 16.0 ± 1.3 mm Hg
[1]; 9 hours later
  Intra-ocular pressure (mean ± standard error): 17.6 ± 1.2 mm Hg
[1]; 12 hours later
  Intra-ocular pressure (mean ± standard error): 20.4 ± 0.7 mm Hg
[1]; 24 hours later
  Intra-ocular pressure (mean ± standard error): 20.6 ± 0.8 mm Hg
[1]; before administration
  Intra-ocular pressure (mean ± standard error): 20.8 ± 0.9 mm Hg
[2]; 0.25 w/v %, 0.5 hour later
  Intra-ocular pressure (mean ± standard error): 20.7 ± 0.7 mm Hg
[2]; 0.25 w/v %, 1 hour later
  Intra-ocular pressure (mean ± standard error): 20.2 ± 0.6 mm Hg
[2]; 0.25 w/v %, 2 hours later
  Intra-ocular pressure (mean ± standard error): 19.8 ± 0.5 mm Hg
[2]; 0.25 w/v %, 3 hours later
  Intra-ocular pressure (mean ± standard error): 20.1 ± 0.6 mm Hg
[2]; 0.25 w/v %, 5 hours later
  Intra-ocular pressure (mean ± standard error): 22.1 ± 0.6 mm Hg
[2]; 0.25 w/v %, 7 hours later
  Intra-ocular pressure (mean ± standard error): 22.9 ± 0.8 mm Hg
[2]; 0.25 w/v %, 9 hours later
  Intra-ocular pressure (mean ± standard error): 21.0 ± 0.7 mm Hg
[2]; 0.25 w/v %, 24 hours later
  Intra-ocular pressure (mean ± standard error): 22.2 ± 0.6 mm Hg
[2]; 0.25 w/v %, before administration
  Intra-ocular pressure (mean ± standard error): 21.8 ± 0.5 mm Hg
[2]; 0.5 w/v %, 0.5 hour later
  Intra-ocular pressure (mean ± standard error): 21.1 ± 0.8 mm Hg
[2]; 0.5 w/v %, 1 hour later
  Intra-ocular pressure (mean ± standard error): 18.9 ± 0.9 mm Hg
[2]; 0.5 w/v %, 2 hours later
  Intra-ocular pressure (mean ± standard error): 18.5 ± 0.9 mm Hg
[2]; 0.5 w/v %, 3 hours later
  Intra-ocular pressure (mean ± standard error): 18.2 ± 0.8 mm Hg
[2]; 0.5 w/v %, 5 hours later
  Intra-ocular pressure (mean ± standard error): 21.6 ± 0.8 mm Hg
[2]; 0.5 w/v %, 7 hours later
  Intra-ocular pressure (mean ± standard error): 22.8 ± 0.8 mm Hg
[2]; 0.5 w/v %, 9 hours later
  Intra-ocular pressure (mean ± standard error): 22.2 ± 0.8 mm Hg
[2]; 0.5 w/v %, 24 hours later
  Intra-ocular pressure (mean ± standard error): 22.5 ± 0.8 mm Hg
[2]; 0.5 w/v %, before administration
  Intra-ocular pressure (mean ± standard error): 22.5 ± 0.6 mm Hg
[3]; 0.5 % (w/v), pH 5.5
  stability / precipitation of ophthalmic solution: very stable and no precipitation was observed

## CC(C)(C)NCC(O)CSc1nc(-c2ccc(C(N)=O)s2)cs1 (centres unmarked) [compound (I) acetate]
[3]; 0.1 % (w/v)
  stability / precipitation of ophthalmic solution: very stable and no precipitation was observed

## CC(C)(C)NCC(O)CSc1nc(-c2ccc(C(N)=O)s2)cs1 (centres unmarked) [compound (I) maleate]
[3]; 0.25 % (w/v), pH 6.0
  stability / precipitation of ophthalmic solution: very stable and no precipitation was observed

## CC(C)(C)NCC(O)CSc1nc(-c2ccc(C(N)=O)s2)cs1 (centres unmarked) [compound (I), 2-(3-tert.-butylamino-2-hydroxypropylthio)-4-(5-carbamoyl-2-thienyl)-thiazole]
Mouse acute toxicity; ip, intraperitoneal
  LD50: 500 mg/kg
Mouse acute toxicity; oral
  LD50: > 5000 mg/kg
mouse
  toxic signs: no animals showed particular troublesome symptoms
Rat acute toxicity; ip, intraperitoneal
  LD50: 340 mg/kg
Rat acute toxicity; oral
  LD50: > 3000 mg/kg
rat
  toxic signs: no animals showed particular troublesome symptoms

— US4396625A, “Treatment of glaucoma or ocular hypertension and ophthalmic composition” (Sumitomo Chemical Company, Limited, priority 1980, dated 1983)
